What follows are molecules tested against T1, human 5HT2c receptor (VSV isoform) (Homo sapiens, UniProt P28335, I156V/I160V/N158S) (assay: cell-based).
T1 construct: expressed in transfected cells; host or cells: HEK 293 EBNA, stably transfected
T1 sequence (P28335 33-458 I156V/N158S/I160V): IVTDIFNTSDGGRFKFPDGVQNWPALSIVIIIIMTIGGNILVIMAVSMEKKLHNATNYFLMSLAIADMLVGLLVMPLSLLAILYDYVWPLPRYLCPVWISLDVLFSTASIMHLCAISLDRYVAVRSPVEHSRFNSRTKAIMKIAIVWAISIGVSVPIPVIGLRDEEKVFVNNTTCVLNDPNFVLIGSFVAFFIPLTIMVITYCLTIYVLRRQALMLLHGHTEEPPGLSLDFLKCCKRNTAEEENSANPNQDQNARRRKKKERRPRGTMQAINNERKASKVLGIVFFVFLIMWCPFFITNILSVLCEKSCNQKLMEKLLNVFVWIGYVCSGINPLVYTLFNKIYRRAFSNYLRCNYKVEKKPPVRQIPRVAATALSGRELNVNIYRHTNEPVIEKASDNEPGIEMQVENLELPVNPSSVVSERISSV

`Clc1ccc(Cn2ccc3sc4c(c32)CCNCC4)cc1Cl` [Example 23, 3-(3,4-Dichloro-benzyl)-3,4,5,6,7,8-hexahydro-9-thia-3,6-diaza-cyclopenta[a]azulene] and `Clc1ccc(Cn2ccc3sc4c(c32)CCNCC4)cc1` [Example 11] cannot be ordered by EC50: less than 0.01 µM for the first, less than 0.01 µM for the second.

`COc1ccc(Cn2ccc3sc4c(c32)CCNCC4)cc1` [Example 19, 3-(4-Methoxy-benzyl)-3,4,5,6,7,8-hexahydro-9-thia-3,6-diaza-cyclopenta[a]azulene] and `Cc1ccc(Cn2ccc3sc4c(c32)CCNCC4)cc1` [Example 8, 3-(4-Methyl-benzyl)-3,4,5,6,7,8-hexahydro-9-thia-3,6-diaza-cyclopenta[a]azulene] cannot be ordered by EC50: less than 0.1 µM for the first, less than 0.01 µM for the second.

`COc1cccc(Cn2ccc3sc4c(c32)CCNCC4)c1` [Example 18, 3-(3-Methoxy-benzyl)-3,4,5,6,7,8-hexahydro-9-thia-3,6-diaza-cyclopenta[a]azulene] and `Cc1cccc(Cn2ccc3sc4c(c32)CCNCC4)c1` [Example 7, 3-(3-Methyl-benzyl)-3,4,5,6,7,8-hexahydro-9-thia-3,6-diaza-cyclopenta[a]azulene] cannot be ordered by EC50: less than 0.01 µM for the first, less than 0.01 µM for the second.

`c1cnc2c(Cn3ccc4sc5c(c43)CCNCC5)cccc2c1` [Example 24, 3-Quinolin-8-ylmethyl-3,4,5,6,7,8-hexahydro-9-thia-3,6-diaza-cyclopenta[a]azulene] and `c1ccc2c(Cn3ccc4sc5c(c43)CCNCC5)cccc2c1` [Example 21, 3-Naphthalen-1-ylmethyl-3,4,5,6,7,8-hexahydro-9-thia-3,6-diaza-cyclopenta[a]azulene] cannot be ordered by EC50: less than 0.1 µM for the first, less than 0.01 µM for the second.

`COc1ccc(-n2ccc3sc4c(c32)CCNCC4)cc1` [Example 14, 3-(4-Methoxy-phenyl)-3,4,5,6,7,8-hexahydro-9-thia-3,6-diaza-cyclopenta[a]azulene] and `Cc1ccc(-n2ccc3sc4c(c32)CCNCC4)cc1` [Example 13, 3-p-Tolyl-3,4,5,6,7,8-hexahydro-9-thia-3,6-diaza-cyclopenta[a]azulene] cannot be ordered by EC50: less than 0.1 µM for the first, less than 0.1 µM for the second.

`c1cn(CC2CCCCC2)c2c3c(sc12)CCNCC3` [Example 20, 3-Cyclohexylmethyl-3,4,5,6,7,8-hexahydro-9-thia-3,6-diaza-cyclopenta[a]azulene] and `CCn1ccc2sc3c(c21)CCNCC3` [Example 1, 3,4,5,6,7,8-Hexahydro-9-thia-3,6-diaza-cyclopenta[a]alazulene] cannot be ordered by EC50: less than 0.1 µM for the first, less than 0.01 µM for the second.

`Clc1cccc(Cn2ccc3sc4c(c32)CCNCC4)c1` [Example 10] and `c1ccc(Cn2ccc3sc4c(c32)CCNCC4)cc1` [Example 4, 3-Benzyl-3,4,5,6,7,8-hexahydro-9-thia-3,6-diaza-cyclopenta[a]azulene] cannot be ordered by EC50: less than 0.01 µM for the first, less than 0.01 µM for the second.

`Cc1ccccc1Cn1ccc2sc3c(c21)CCNCC3` [Example 6, 3-(2-Methyl-benzyl)-3,4,5,6,7,8-hexahydro-9-thia-3,6-diaza-cyclopenta[a]azulene] and `Clc1cccc(Cn2ccc3sc4c(c32)CCNCC4)c1Cl` [Example 22, 3-(2,3-Dichloro-benzyl)-3,4,5,6,7,8-hexahydro-9-thia-3,6-diaza-cyclopenta[a]azulene] cannot be ordered by EC50: less than 0.01 µM for the first, less than 0.01 µM for the second.

`COc1cccc(-n2ccc3sc4c(c32)CCNCC4)c1` [Example 16, 3-(3-Methoxy-phenyl)-3,4,5,6,7,8-hexahydro-9-thia-3,6-diaza-cyclopenta[a]azulene] and `Cc1cccc(-n2ccc3sc4c(c32)CCNCC4)c1` [Example 15, 3-m-Tolyl-3,4,5,6,7,8-hexahydro-9-thia-3,6-diaza-cyclopenta[a]azulene] cannot be ordered by EC50: less than 1 µM for the first, less than 0.1 µM for the second.

`Clc1cccc(-n2ccc3sc4c(c32)CCNCC4)c1` [Example 17, 3-(3-Chloro-phenyl)-3,4,5,6,7,8-hexahydro-9-thia-3,6-diaza-cyclopenta[a]azulene] and `Clc1ccc(-n2ccc3sc4c(c32)CCNCC4)cc1` [Example 5, 3-(4-Chloro-phenyl)-3,4,5,6,7,8-hexahydro-9-thia-3,6-diaza-cyclopenta[a]azulene] cannot be ordered by EC50: less than 0.1 µM for the first, less than 1 µM for the second.

`c1ccc2c(Cn3ccc4sc5c(c43)CCNCC5)nccc2c1` [Example 26, 3-Isoquinolin-1-ylmethyl-3,4,5,6,7,8-hexahydro-9-thia-3,6-diaza-cyclopenta[a]azulene] and `c1cc(Cn2ccc3sc4c(c32)CCNCC4)c2ccncc2c1` [Example 25, 3-Isoquinolin-5-ylmethyl-3,4,5,6,7,8-hexahydro-9-thia-3,6-diaza-cyclopenta[a]azulene] cannot be ordered by EC50: less than 0.01 µM for the first, less than 0.01 µM for the second.

Source: US9309262B2 (ABT Holding Company, priority 2013, dated 2016)
